Experimental data as given in patent US20150299188A1, “HETEROCYCLIC COMPOUND” (priority 2012, published 2015).

Test system: FLAP (5-lipoxygenase activating protein)
Assay: In vitro binding test: displacement of [3H]-7-chloro-3-(5-((3-fluoropyridin-2-yl)methoxy)-2-methylphenyl)-3,4-dihydroquinazolin-2(1H)-one from Sf9 microsome fractions
Design: species or system human and mouse
Details: Sf9 microsome fractions expressing FLAP; 100% = radioligand binding with 10 μM sodium 3-(3-(tert-butylsulfanyl)-1-(4-chlorobenzyl)-5-isopropyl-1H-indol-2-yl)-2,2-dimethylpropanoate, 0% = DMSO; test compound concentration not given
How it was run: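 Sf9 microsomes expressing human or mouse FLAP (2 μg/mL) preincubated with compound 10 min at room temperature, then 120 nM tritiated quinazolinone ligand added for 60 min; buffer 100 mM Tris-HCl pH 7.5 with NaCl, EDTA, DTT, glycerol, Tween20. Bound ligand filtered and counted by scintillation; 10 μM indole propanoate defines 100% inhibition, DMSO 0%.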

Row | Structure (SMILES) | inhibitory rate (%)
1 | Cc1ccc(OCc2ncccc2F)cc1N1Cc2c(Cl)cccc2N(CC2CC2)C1=O [Example 284, 5-chloro-1-(cyclopropylmethyl)-3-(5-((3-fluoropyridin-2-yl)methoxy)-2-methylphenyl)-3,4-dihydroquinazolin-2(1H)-one] | 105%
2 | Cc1ccc(OCc2ncccc2F)cc1N1Cc2c(Cl)cccc2N(CC(=O)O)C1=O [Example 285, (5-chloro-3-(5-((3-fluoropyridin-2-yl)methoxy)-2-methylphenyl)-2-oxo-3,4-dihydroquinazolin-1(2H)-yl)acetic acid] | 102%
3 | Cc1ccc(OCc2ncccc2F)cc1N1Cc2c(Cl)cccc2N(CC(N)=O)C1=O [Example 286, 2-(5-chloro-3-(5-((3-fluoropyridin-2-yl)methoxy)-2-methylphenyl)-2-oxo-3,4-dihydroquinazolin-1(2H)-yl)acetamide] | 112%
4 | O=C1Nc2cccc(Cl)c2CN1c1cc(OCc2ncccc2F)c(F)cc1Cl [Example 287, 5-chloro-3-(2-chloro-4-fluoro-5-((3-fluoropyridin-2-yl)methoxy)phenyl)-3,4-dihydroquinazolin-2(1H)-one] | 95%
5 | Cc1ccc(OCc2ncccc2F)cc1N1Cc2ccc(C(=O)N3CCOCC3)cc2NC1=O [Example 288, 3-(5-((3-fluoropyridin-2-yl)methoxy)-2-methylphenyl)-7-(morpholin-4-ylcarbonyl)-3,4-dihydroquinazolin-2(1H)-one] | 104%
6 | CC(C)(O)c1ccc2c(c1)NC(=O)N(c1cc(OCc3c(F)cccc3F)ccc1CC1CCCCC1)C2 [Example 289, 3-(2-(cyclohexylmethyl)-5-((2,6-difluorobenzyl)oxy)phenyl)-7-(2-hydroxypropan-2-yl)-3,4-dihydroquinazolin-2(1H)-one] | 80%
7 | O=C1Nc2cc(CO)ccc2CN1c1cc(OCc2c(F)cccc2F)ccc1CC1CCCCC1 [Example 290, 3-(2-(cyclohexylmethyl)-5-((2,6-difluorobenzyl)oxy)phenyl)-7-(hydroxymethyl)-3,4-dihydroquinazolin-2(1H)-one] | 97%
8 | Cc1ccc(OCc2ncccc2F)cc1N1Cc2c(Cl)cccc2N(C)C1=O [Example 291, 5-chloro-3-(5-((3-fluoropyridin-2-yl)methoxy)-2-methylphenyl)-1-methyl-3,4-dihydroquinazolin-2(1H)-one] | 94%
9 | Cc1ccc(OCc2ncccc2F)cc1N1Cc2c(Cl)cc(C(=O)O)cc2NC1=O [Example 292, 5-chloro-3-(5-((3-fluoropyridin-2-yl)methoxy)-2-methylphenyl)-2-oxo-1,2,3,4-tetrahydroquinazoline-7-carboxylic acid] | 107%
10 | CC(C)(C)Cc1ccc(OCc2c(F)cccc2F)cc1N1Cc2ccc(C(C)(C)O)cc2NC1=O [Example 293, 3-(5-((2,6-difluorobenzyl)oxy)-2-(2,2-dimethylpropyl)phenyl)-7-(2-hydroxypropan-2-yl)-3,4-dihydroquinazolin-2(1H)-one] | 84%
11 | CC(C)(C)Cc1ccc(OCc2c(F)cccc2F)cc1N1Cc2ccc(CO)cc2NC1=O [Example 294, 3-(5-((2,6-difluorobenzyl)oxy)-2-(2,2-dimethylpropyl)phenyl)-7-(hydroxymethyl)-3,4-dihydroquinazolin-2(1H)-one] | 65%
12 | COC(=O)c1ccccc1CN1C(=O)N(c2cc(OCc3ncccc3F)ccc2C)Cc2c(Cl)cccc21 [Example 295, methyl 2-((5-chloro-3-(5-((3-fluoropyridin-2-yl)methoxy)-2-methylphenyl)-2-oxo-3,4-dihydroquinazolin-1(2H)-yl)methyl)benzoate] | 102%
13 | Cc1ccc(OCc2ncccc2F)cc1N1Cc2c(Cl)cccc2N(Cc2ccccc2C(=O)O)C1=O [Example 296, 2-((5-chloro-3-(5-((3-fluoropyridin-2-yl)methoxy)-2-methylphenyl)-2-oxo-3,4-dihydroquinazolin-1(2H)-yl)methyl)benzoic acid] | 95%
14 | Cc1ccc(OCc2ncccc2F)cc1N1Cc2c(cccc2C(F)(F)F)NC1=O [Example 297, 3-(5-((3-fluoropyridin-2-yl)methoxy)-2-methylphenyl)-5-(trifluoromethyl)-3,4-dihydroquinazolin-2(1H)-one] | 106%
15 | Cc1ccc(OCc2ncccc2F)cc1N1Cc2c(C#N)cccc2NC1=O [Example 298, 3-(5-((3-fluoropyridin-2-yl)methoxy)-2-methylphenyl)-2-oxo-1,2,3,4-tetrahydroquinazoline-5-carbonitrile] | 104%
16 | Cc1ccc(OCc2ncccc2F)cc1N1Cc2c(Cl)cc(C(=O)NC3CC3)cc2NC1=O [Example 299, 5-chloro-N-cyclopropyl-3-(5-((3-fluoropyridin-2-yl)methoxy)-2-methylphenyl)-2-oxo-1,2,3,4-tetrahydroquinazoline-7-carboxamide] | 113%
17 | O=C1Nc2ccccc2CN1c1cc(OCc2ncccc2F)ccc1F [Example 300, 3-(2-fluoro-5-((3-fluoropyridin-2-yl)methoxy)phenyl)-3,4-dihydroquinazolin-2(1H)-one] | 105%
18 | O=C1Nc2cc(Br)ccc2CN1c1cc(OCc2ncccc2F)ccc1C(F)(F)F [Example 301, 7-bromo-3-(5-((3-fluoropyridin-2-yl)methoxy)-2-(trifluoromethyl)phenyl)-3,4-dihydroquinazolin-2(1H)-one] | 104%
19 | Cc1ccc(OCc2ncccc2F)cc1N1Cc2ccc(C(=O)N(C)C3CC3)cc2NC1=O [Example 302, N-cyclopropyl-3-(5-((3-fluoropyridin-2-yl)methoxy)-2-methylphenyl)-N-methyl-2-oxo-1,2,3,4-tetrahydroquinazoline-7-carboxamide] | 104%
20 | Cc1ccc(OCc2ncccc2F)cc1N1Cc2ccc(C(=O)NCC(F)(F)F)cc2NC1=O [Example 303, 3-(5-((3-fluoropyridin-2-yl)methoxy)-2-methylphenyl)-2-oxo-N-(2,2,2-trifluoroethyl)-1,2,3,4-tetrahydroquinazoline-7-carboxamide] | 108%
21 | Cc1cc(I)c(OCc2ncccc2F)cc1N1Cc2ccc(Cl)cc2NC1=O [Example 304, 7-chloro-3-(5-((3-fluoropyridin-2-yl)methoxy)-4-iodo-2-methylphenyl)-3,4-dihydroquinazolin-2(1H)-one] | 64%
22 | Cc1ccc(OCc2ncccc2F)cc1N1Cc2c(O)cccc2NC1=O [Example 305, 3-(5-((3-fluoropyridin-2-yl)methoxy)-2-methylphenyl)-5-hydroxy-3,4-dihydroquinazolin-2(1H)-one] | 103%
23 | O=C1Nc2ccccc2CN1c1cc(OCc2ncccc2F)ccc1CN1CCCC1 [Example 306, 3-(5-((3-fluoropyridin-2-yl)methoxy)-2-(pyrrolidin-1-ylmethyl)phenyl)-3,4-dihydroquinazolin-2(1H)-one] | 74%
24 | COc1nccc2c1CN(c1cc(OCc3ncccc3F)ccc1C)C(=O)N2 [Example 307, 3-(5-((3-fluoropyridin-2-yl)methoxy)-2-methylphenyl)-5-methoxy-3,4-dihydropyrido[4,3-d]pyrimidin-2(1H)-one] | 100%
